Source: ChEMBL document CHEMBL3885861, “Open TG-GATES”

Species: Rattus norvegicus
Assay: Open TG-GATES - Regimen: Daily Repeat
Assay type: toxicity, organism-based, Sprague-Dawley
Design: regimen Daily Repeat, gender Male, age 6 weeks
Conditions: in vivo, sc, 0 mg/kg, route subcutaneous injection, dose 0 ug/Kg, dose level Control; for APTT / Bas / Eos / Fbg / Hb / Ht / Lym / MCH / MCHC / MCV / Mono / Neu / PT / Plat / RBC / Ret / WBC: tissue Blood; for KIDNEY_L / KIDNEY_R / KIDNEY_TOTAL: tissue Kidney; for LIVER: tissue Liver; for A/G / ALP / ALT / AST / BUN / CRE / Ca / Cl / DBIL / GLC / IP / K / LDH / Na / PL / RALB / TBIL / TC / TG / TP / gamma-GTP: tissue Plasma

CC(=O)O.N=C(N)NCCC[C@@H](NC(=O)[C@@H]1CCCN1C(=O)[C@@H]1CSSCCC(=O)N[C@@H](Cc2ccc(O)cc2)C(=O)N[C@@H](Cc2ccccc2)C(=O)N[C@@H](CCC(N)=O)C(=O)N[C@@H](CC(N)=O)C(=O)N1)C(=O)NCC(N)=O [DESMOPRESSIN ACETATE]
TERMINAL_BW (72 h, time 3 day): 251.2 g
APTT (72 h, time 3 day): 16.5 s
Bas (72 h, time 3 day): 0%
Eos (72 h, time 3 day): 1%
Fbg (72 h, time 3 day): 269.4 mg/dL
Hb (72 h, time 3 day): 13.2 g/dL
Ht (72 h, time 3 day): 40.3%
Lym (72 h, time 3 day): 66.8%
MCH (72 h, time 3 day): 21.5 pg
MCHC (72 h, time 3 day): 32.7%
MCV (72 h, time 3 day): 65.7 fL
Mono (72 h, time 3 day): 9.6%
Neu (72 h, time 3 day): 22.4%
PT (72 h, time 3 day): 11.9 s
Plat (72 h, time 3 day): 133.8 x10_4/uL
RBC (72 h, time 3 day): 613.4 x10_4/ul
Ret (72 h, time 3 day): 6.9%
WBC (72 h, time 3 day): 105.2 x10_2/uL
KIDNEY_L (72 h, time 3 day): 1 g
KIDNEY_R (72 h, time 3 day): 1.1 g
KIDNEY_TOTAL (72 h, time 3 day): 2.1 g
LIVER (72 h, time 3 day): 11.8 g
A/G (72 h, time 3 day): 2
ALP (72 h, time 3 day): 1258.4 IU/L
ALT (72 h, time 3 day): 32.6 IU/L
AST (72 h, time 3 day): 68.8 IU/L
BUN (72 h, time 3 day): 15.6 mg/dL
CRE (72 h, time 3 day): 0.4 mg/dL
Ca (72 h, time 3 day): 11.2 mg/dL
Cl (72 h, time 3 day): 104.6 meq/L
DBIL (72 h, time 3 day): 0.01 mg/dL
GLC (72 h, time 3 day): 185.6 mg/dL
IP (72 h, time 3 day): 7.3 mg/dL
K (72 h, time 3 day): 5.4 meq/L
LDH (72 h, time 3 day): 203 IU/L
Na (72 h, time 3 day): 136 meq/L
PL (72 h, time 3 day): 152.2 mg/dL
RALB (72 h, time 3 day): 3.7 g/dL
TBIL (72 h, time 3 day): 0.034 mg/dL
TC (72 h, time 3 day): 79.8 mg/dL
TG (72 h, time 3 day): 119.6 mg/dL
TP (72 h, time 3 day): 5.6 g/dL
gamma-GTP (72 h, time 3 day): 1 IU/L
TERMINAL_BW ([…], time 7 day): 275.2 g
TERMINAL_BW ([…], time 14 day): 338.4 g
TERMINAL_BW ([…], time 28 day): 413.7 g
APTT ([…], time 7 day): 16.5 s
Bas ([…], time 7 day): 0%
Eos ([…], time 7 day): 1%
Fbg ([…], time 7 day): 262.8 mg/dL
Hb ([…], time 7 day): 13.6 g/dL
Ht ([…], time 7 day): 41.6%
Lym ([…], time 7 day): 68.2%
MCH ([…], time 7 day): 21 pg
MCHC ([…], time 7 day): 32.8%
MCV ([…], time 7 day): 64.2 fL
Mono ([…], time 7 day): 7.4%
Neu ([…], time 7 day): 23.4%
PT ([…], time 7 day): 12 s
Plat ([…], time 7 day): 124.2 x10_4/uL
RBC ([…], time 7 day): 648.6 x10_4/ul
Ret ([…], time 7 day): 6.6%
WBC ([…], time 7 day): 103.6 x10_2/uL
APTT ([…], time 14 day): 15.5 s
Bas ([…], time 14 day): 0%
Eos ([…], time 14 day): 1%
Fbg ([…], time 14 day): 263.4 mg/dL
Hb ([…], time 14 day): 14.2 g/dL
Ht ([…], time 14 day): 43.5%
Lym ([…], time 14 day): 74.8%
MCH ([…], time 14 day): 20.7 pg
MCHC ([…], time 14 day): 32.6%
MCV ([…], time 14 day): 63.2 fL
Mono ([…], time 14 day): 7.8%
Neu ([…], time 14 day): 16.8%
PT ([…], time 14 day): 11.7 s
Plat ([…], time 14 day): 130.6 x10_4/uL
RBC ([…], time 14 day): 687 x10_4/ul
Ret ([…], time 14 day): 6%
WBC ([…], time 14 day): 122.6 x10_2/uL
APTT ([…], time 28 day): 17.8 s
Bas ([…], time 28 day): 0%
Eos ([…], time 28 day): 1.6%
Fbg ([…], time 28 day): 249.4 mg/dL
Hb ([…], time 28 day): 15.2 g/dL
Ht ([…], time 28 day): 46.3%
Lym ([…], time 28 day): 77.4%
MCH ([…], time 28 day): 19 pg
MCHC ([…], time 28 day): 32.8%
MCV ([…], time 28 day): 58.1 fL
Mono ([…], time 28 day): 6.6%
Neu ([…], time 28 day): 14.8%
PT ([…], time 28 day): 12.3 s
Plat ([…], time 28 day): 113 x10_4/uL
RBC ([…], time 28 day): 797.2 x10_4/ul
Ret ([…], time 28 day): 3.1%
WBC ([…], time 28 day): 130.4 x10_2/uL
KIDNEY_L ([…], time 7 day): 1.1 g
KIDNEY_R ([…], time 7 day): 1.1 g
KIDNEY_TOTAL ([…], time 7 day): 2.2 g
KIDNEY_L ([…], time 14 day): 1.3 g
KIDNEY_R ([…], time 14 day): 1.3 g
KIDNEY_TOTAL ([…], time 14 day): 2.6 g
KIDNEY_L ([…], time 28 day): 1.5 g
KIDNEY_R ([…], time 28 day): 1.5 g
KIDNEY_TOTAL ([…], time 28 day): 2.9 g
LIVER ([…], time 7 day): 12.4 g
LIVER ([…], time 14 day): 14.3 g
LIVER ([…], time 28 day): 15.3 g
A/G ([…], time 7 day): 1.9
ALP ([…], time 7 day): 1187.4 IU/L
ALT ([…], time 7 day): 30.2 IU/L
AST ([…], time 7 day): 68.8 IU/L
BUN ([…], time 7 day): 16.2 mg/dL
CRE ([…], time 7 day): 0.4 mg/dL
Ca ([…], time 7 day): 13.7 mg/dL
Cl ([…], time 7 day): 99.2 meq/L
DBIL ([…], time 7 day): 0.014 mg/dL
GLC ([…], time 7 day): 197.2 mg/dL
IP ([…], time 7 day): 7.4 mg/dL
K ([…], time 7 day): 5.1 meq/L
LDH ([…], time 7 day): 157.8 IU/L
Na ([…], time 7 day): 130.2 meq/L
PL ([…], time 7 day): 165 mg/dL
RALB ([…], time 7 day): 3.6 g/dL
TBIL ([…], time 7 day): 0.048 mg/dL
TC ([…], time 7 day): 86.8 mg/dL
TG ([…], time 7 day): 171 mg/dL
TP ([…], time 7 day): 5.5 g/dL
gamma-GTP ([…], time 7 day): 1 IU/L
A/G ([…], time 14 day): 1.7
ALP ([…], time 14 day): 1208.4 IU/L
ALT ([…], time 14 day): 31 IU/L
AST ([…], time 14 day): 67.8 IU/L
BUN ([…], time 14 day): 16.2 mg/dL
CRE ([…], time 14 day): 0.4 mg/dL
Ca ([…], time 14 day): 11.1 mg/dL
Cl ([…], time 14 day): 106.2 meq/L
DBIL ([…], time 14 day): 0.01 mg/dL
GLC ([…], time 14 day): 194.2 mg/dL
IP ([…], time 14 day): 6.9 mg/dL
K ([…], time 14 day): 5.2 meq/L
LDH ([…], time 14 day): 149 IU/L
Na ([…], time 14 day): 138.6 meq/L
PL ([…], time 14 day): 166 mg/dL
RALB ([…], time 14 day): 3.8 g/dL
TBIL ([…], time 14 day): 0.026 mg/dL
TC ([…], time 14 day): 91.4 mg/dL
TG ([…], time 14 day): 136.8 mg/dL
TP ([…], time 14 day): 6 g/dL
gamma-GTP ([…], time 14 day): 0.8 IU/L
A/G ([…], time 28 day): 1.5
ALP ([…], time 28 day): 865.8 IU/L
ALT ([…], time 28 day): 27.8 IU/L
AST ([…], time 28 day): 67.6 IU/L
BUN ([…], time 28 day): 14.6 mg/dL
CRE ([…], time 28 day): 0.4 mg/dL
Ca ([…], time 28 day): 8.9 mg/dL
Cl ([…], time 28 day): 106 meq/L
DBIL ([…], time 28 day): 0.01 mg/dL
GLC ([…], time 28 day): 184.8 mg/dL
IP ([…], time 28 day): 6.2 mg/dL
K ([…], time 28 day): 4.9 meq/L
LDH ([…], time 28 day): 154.2 IU/L
Na ([…], time 28 day): 139.2 meq/L
PL ([…], time 28 day): 126.4 mg/dL
RALB ([…], time 28 day): 3.6 g/dL
TBIL ([…], time 28 day): 0.038 mg/dL
TC ([…], time 28 day): 63.6 mg/dL
TG ([…], time 28 day): 120.6 mg/dL
TP ([…], time 28 day): 6 g/dL
gamma-GTP ([…], time 28 day): 0.6 IU/L
